Three compounds from patent US5034530A, “Imidazoquinoxaline compounds and their preparation and use” (Novo Nordisk A/S, priority 1988, dated 1991) can be followed below.

Broadly, the ED50 is the dose that gives a 50% effect, or the effect in half of the subjects.

SMILES strings stand for the structures.

For this test, the system named is benzodiazepine receptors. In words: in vivo displacement of 3H-flunitrazepam specific binding from brain benzodiazepine receptors in mice. The note with it: dose reducing specific 3H-flunitrazepam binding in living mouse brain to 50% of control; test substance i.p. 15 min before i.v. 3H-FNM; female mice; forebrain. From the text: The pharmaceutical properties of the compounds of the invention can be illustrated by determining their capability for displacing radioactive labelled flunitrazepam from benzodiazepine receptors.
The displacement activity of the compounds of the invention may be found by determining the ED50 value. The ED50 value represents the dose (mg/kg) of a test substance which causes the specific binding of flunitrazepam to benzodiazepine receptors in a living brain to be reduced to 50% of the control value.
Such an in vivo test is carried out as follows:
Principle. Twenty minutes after a dose of ^3 H-flunitrazepam (^3 H-FNM) (200 μCi/kg, i.v.) the amount of specific ^3 H-FNM binding to brain benzodiazepine receptors has reached its maximal value.
Test procedure. Suspensions of test substances (2 mg/ml) are prepared in 5% Duphasol-X (TM Duphar, castor oil-ethylene oxide derivative for emulsifying and solubilizing oil and other water-insoluble substances) by sonification for 10 min using a Branson B15 microtip ultrasonifier (setting 7). Groups of three mice (female, NMR, 18-22 grams) are injected with the test substance at 100 mg/kg intraperitoneally. Fifteen minutes after test substance administration the mice are challenged with 4 μCi intravenously of ^3 H-FNM (70-90 Ci/mole) in 200 μl physiological saline. Twenty minutes after ^3 H-FNM administration mice are sacrificed by decapitation, the forebrains rapidly excised (within 30 sec) and homogenized in 12 ml of icecold 25 mM KH2 PO4, pH 7.1, using an Ultra-Turrax homogenizer fitted with an N 10 shaft. […] The amounts of radioactivity on the filters are determined by conventional scintillation counting. […]
Results. The ED50 value is determined from dose response curves. If only one dose of test substance is administered the ED50 value is calculated as follows, provided that the inhibition of specific binding is within the range of 25-75%: [formula] where Co is specific binding in controls and Cx is specific binding in mice treated with test substance.
`Cc1nc2ccccc2n2cnc(-c3nc(C4CC4)no3)c12` [Compound 10, 3-(3-Cyclopropyl-1,2,4-oxadiazol-5-yl)-4-methyl-imidazo[1,5-a]quinoxaline]: the ED50 came out at 3.5 mg/kg. The same measure for `Cc1nc2ccccc2n2cnc(-c3noc(C4CC4)n3)c12` [Compound 7, 3-(5-Cyclopropyl-1,2,4-oxadiazol-3-yl)-4-methyl-imidazo[1,5-a]quinoxaline]: 1.3 mg/kg; for `Cc1nc(-c2ncn3c2c(C)nc2ccccc23)no1` [Compound 8, 4-Methyl-3-(5-methyl-1,2,4-oxadiazol-3-yl)-imidazo[1,5-a]quinoxaline]: 1.8 mg/kg.
